Where no end group is shown, it is not given here.
Experiments:
[1] = test system: MUC1 and EGFR interaction; test: EGF-stimulated association of MUC1 and EGFR in ZR-75-1 cells (anti-MUC1-N precipitates immunoblotted); assay type: cell-based, human; details: EGF for 5 min, co-immunoprecipitation
Method: (§1) Cell culture. Human breast cancer (ZR-75-1, BT549) and lung cancer (CRL-5985, CRL-5909) cells were grown in RPMI1640 medium supplemented with 10% fetal bovine serum (FBS), 100 units/ml penicillin and 100 μg/ml streptomycin. The human breast cancer ([…], MCF-7), prostate cancer (LnCAP, DU145, PC3), lung cancer (A549), kidney epithelial (293) and Chinese hamster ovary (CHO-K1) cells were cultured in Dulbecco's Modified Eagle's medium (DMEM) supplemented with 10% FBS, antibiotics and 1 mM L-glutamine. The glycosylation deficient CHO-Lec2 and CHO-Lec8 cells (ATCC, Manassas, Va.) were grown in alpha minimum essential medium containing 10% FBS and antibiotics. In certain studies, cells were cultured in medium with 0.1% FBS for 24 hours and then stimulated with 100 ng/ml epidermal growth factor (EGF) (Calbiochem-Novabiochem, La Jolla, Calif.) for 5 minutes at 37° C.
Immunoblotting and precipitates. Lysates were prepared from subconfluent cells as described (Li et al., 2001). Immunoblot analysis was performed with antibodies specific for MUC1-C (Ab5; Neomarkers, Fremont, Calif.), galectin-3 (Abcam, Cambridge, Mass.), β-actin (Sigma-Aldrich, St. Louis, Mo.), epidermal growth factor receptor (EGFR) (Santa Cruz Biotechnology, Santa Cruz, Calif.), and MUC1-N (DF3) (Ren et al., 2004). Immune complexes were prepared as described with antibodies specific for MUC1-C and MUC1-N (Li et al., 1998). […]

EGFR and MUC1 clustering = test: Confocal microscopy of EGF-induced colocalization of EGFR and MUC1 in ZR-75-1 cells; assay type: cell-based, human; details: EGF for 5 min
Method: as §1
Immunofluorescence microscopy. Cells were fixed in 3.7% formaldehyde, permeabilized in 0.2% Triton™ X-100 and post-fixed in 3.7% formaldehyde. The cells were blocked with 10% normal goat serum and stained with antibodies specific for MUC1-N (MAb DF3) and antibodies specific for EGFR (Santa Cruz Biotechnology, Santa Cruz, Calif.), followed by fluorescein-conjugated antibodies specific for rabbit IgG or Texas Red-conjugated antibodies specific for mouse IgG (Jackson ImmunoResearch Laboratories, West Grove, Pa.). […]

MUC1-C/ED = target: T1, MUC1-C/ED (Homo sapiens, UniProt P15941); test: In vitro binding assay: hFc-MUC1-C/ED incubated with GST-galectin-3 deletion mutants, glutathione pull-down; details: immunoblot anti-MUC1-C/ED
T1 construct: made in house; host or cells: CHO-K1
T1 sequence (P15941 1098-1155): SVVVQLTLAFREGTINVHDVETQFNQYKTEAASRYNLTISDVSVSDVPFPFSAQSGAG
Method: (§2) In vitro binding assays. hFc and hFc-MUC1-C/ED were incubated with purified galectin-3 in lysis buffer for 1 hour at 4° C. The reaction products were precipitated with protein G-Sepharose™ and immunoblotted with anti-galectin-3. In other studies, hFc-MUC1-C/ED was incubated with GST-galectin-3 deletion mutants. The reaction products were precipitated with glutathione-sepharose 4B and immunoblotted with anti-MUC1-C/ED (Ren et al., 2004).

miR-322 [2] = test: Galectin-3 mRNA stability assay after actinomycin D in transfected BT549/vector cells; assay type: cell-based, human; details: BT549/vector cells transfected with oligo, then actinomycin D; quantitative RT-PCR
Method: mRNA stability assays. […] Total RNA was isolated and analyzed for galectin-3 and GAPDH mRNA levels by quantitative RT-PCT. The half life of galectin-3 mRNA was calculated using linear regression analysis. Antisense inhibition of miR-322. An antisense 2'-O-methyl oligoribonucleotide […] NO:20) against miR-322 and a scrambled 2'-O-methyl oligoribonucleotide […] NO:21) (Integrated DNA Technologies) were transfected into BT549 cells (50 pmol/10,000 cells) in the presence of LipofectamineTM 2000. At 72 hours after transfection, the cells were analyzed for galectin-3 expression.

miR-322 [3] = test: Antisense inhibition of miR-322: galectin-3 expression in BT549/vector cells; assay type: cell-based, human; details: 72 h after transfection
Method: Immunoblotting and precipitates. Lysates were prepared from subconfluent cells as described (Li et al., 2001). Immunoblot analysis was performed with antibodies specific for MUC1-C (Ab5; Neomarkers, Fremont, Calif.), galectin-3 (Abcam, Cambridge, Mass.), β-actin (Sigma-Aldrich, St. Louis, Mo.), epidermal growth factor receptor (EGFR) (Santa Cruz Biotechnology, Santa Cruz, Calif.), and MUC1-N (DF3) (Ren et al., 2004). Immune complexes were prepared as described with antibodies specific for MUC1-C and MUC1-N (Li et al., 1998). For GST “pull-down” assays, GST or GST-galectin-3 was incubated with cell lysates for 2 hours at 4° C. and precipitated with glutathione-Sepharose™ 4B. Precipitates were subjected to immunoblotting with anti-MUC1-C, anti-galectin-3 (Santa Cruz Biotechnology, Santa Cruz, Calif.), anti-MUC1-N (DF3) (Ren et al., 2004), anti-EGFR (Santa Cruz Biotechnology), or anti-β-actin.
Quantitative real-time PCR. […] Quantification of galectin-3 transcripts was performed with primer pairs […] […] Relative gene expression was determined using the comparative ddCT (threshold) method with GAPDH as the internal control.
Antisense inhibition of miR-322. […] At 72 hours after transfection, the cells were analyzed for galectin-3 expression.

[4] = target: T2, purified recombinant galectin-3 (Homo sapiens, UniProt P17931, P64H/T98P); test: In vitro binding assay: hFc proteins incubated with purified galectin-3, protein G precipitation, anti-galectin-3 immunoblot; details: 1 hour at 4° C.; protein G-Sepharose precipitation
T2 construct: GST fusion proteins with full-length galectin-3 or certain deletion mutants were prepared; made in house; host or cells: E. coli
T2 sequence (P17931 whole entry P64H/T98P, the tested form may be a part): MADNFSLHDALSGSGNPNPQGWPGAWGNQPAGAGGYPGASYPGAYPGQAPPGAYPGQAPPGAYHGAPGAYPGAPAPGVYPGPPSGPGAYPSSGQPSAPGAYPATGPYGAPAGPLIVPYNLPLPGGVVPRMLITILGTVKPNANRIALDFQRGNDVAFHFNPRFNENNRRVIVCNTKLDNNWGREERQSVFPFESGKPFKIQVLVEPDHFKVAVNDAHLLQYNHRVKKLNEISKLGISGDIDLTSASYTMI
Method: as §2

galectin-3 = target: T3, galectin-3 (Homo sapiens, UniProt P17931); test: Surface plasmon resonance (BIAcore): binding of MUC1-C/ED to immobilized galectin-3; details: galectin-3 immobilized on sensor chip, 25° C., 1:1 binding with a drifting base model, read-out: dissociation constant (KD) for binding to galectin-3
T3 construct: GST fusion proteins with full-length galectin-3 or certain deletion mutants were prepared; made in house; host or cells: E. coli
T3 sequence (P17931 whole entry P64H/T98P, the tested form may be a part): as above
Method: (§3) Surface plasmon resonance analysis. Surface plasmon resonance measurements were determined using a BIACORE™ 3000 instrument at 25° C. Galectin-3 and galectin-3(63-250) were covalently coupled to CM5 Biacore™ sensor chips (500-1000 RU) at 30 μg/ml using the Biacore™ Amine Coupling kit. hFc-MUC1-C/ED and hFc diluted in running buffer (50 mM Tris-HCl, pH 7.4, 150 mM NaCl, 0.005% NP-40) were injected across galectin-3, galectin-3(63-250) or control flow cells at a rate of 30 μl/min. Regeneration of the sensor surface was performed with a 30-second pulse of 100 mM lactose. Association and dissociation kinetic constants were calculated by BIAevaluation™ software using 1:1 binding with a drifting base model.

galectin-3(63-250) = target: T4, galectin-3(63-250) (Homo sapiens, UniProt P17931, T98P); test: Surface plasmon resonance (BIAcore): binding of MUC1-C/ED to immobilized galectin-3(63-250); details: galectin-3(63-250) immobilized on sensor chip, 25° C., 1:1 binding with a drifting base model, read-out: dissociation constant (KD) for binding to galectin-3(63-250)
T4 construct: made in house; host or cells: E. coli
T4 sequence (P17931 with tags, fused parts or gaps T98P): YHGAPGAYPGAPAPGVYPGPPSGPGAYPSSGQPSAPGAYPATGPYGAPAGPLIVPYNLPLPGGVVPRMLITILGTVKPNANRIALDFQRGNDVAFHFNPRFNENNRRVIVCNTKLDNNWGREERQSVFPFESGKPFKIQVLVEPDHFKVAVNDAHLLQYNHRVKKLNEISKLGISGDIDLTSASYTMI
Method: as §3

## OC[C@H]1O[C@@H](O[C@H]2[C@H](O)[C@@H](O)C(O)O[C@@H]2CO)[C@H](O)[C@@H](O)[C@H]1O (stereo partly drawn) [lactose]
[1]
  EGF-stimulated binding of MUC1 and EGFR: attenuated
EGFR and MUC1 clustering
  EGF-induced colocalization of EGFR and MUC1 in clusters: blocked

## OC[C@H]1O[C@@](CO)(O[C@H]2O[C@H](CO)[C@@H](O)[C@H](O)[C@H]2O)[C@@H](O)[C@@H]1O [sucrose]
[1]
  EGF-stimulated binding of MUC1 and EGFR: not sucrose
EGFR and MUC1 clustering
  EGF-induced colocalization of EGFR and MUC1 in clusters: not sucrose

## GST-galectin-3(1-62): GST fusion of galectin-3 deletion mutant 1-62 that includes the ND
MUC1-C/ED
  binding of MUC1-C/ED to GST-galectin-3 fusion proteins (pull-down): no detectable binding

## GST-galectin-3(1-138): GST fusion of galectin-3 deletion mutant 1-138 that includes the ND
MUC1-C/ED
  binding of MUC1-C/ED to GST-galectin-3 fusion proteins (pull-down): no detectable binding

## GST-galectin-3(63-250): GST fusion of galectin-3 amino acids 63-250 that contains the CRD
MUC1-C/ED
  binding of MUC1-C/ED to GST-galectin-3 fusion proteins (pull-down): pulled-down

## GST-galectin-3: GST fusion protein with full-length galectin-3
MUC1-C/ED
  binding of MUC1-C/ED to GST-galectin-3 fusion proteins (pull-down): pulled-down

## anti-miR-322: antisense 2′-O-methyl oligoribonucleotide (GGUAUAGCAGCGCCUCACGUUUUG) (SEQ ID NO:20) against miR-322 (all 2'-O-methyl, backbone not given here)
miR-322 [2]
  half-life of galectin-3 transcripts: 19.5 h
miR-322 [3]; immunoblotting
  galectin-3 expression at the protein level: upregulates
miR-322 [3]; quantitative RT-PCR
  galectin-3 expression at the mRNA level: upregulates

## hFc-MUC1-C/ED: MUC1-C extracellular domain (58 amino acids) fused to human Fc, secreted from CHO-K1 cells (SVVVQLTLAFREGTINVHDVETQFNQYKTEAASRYNLTISDVSVSDVPFPFSAQSGAG; not fully specified (N-terminus); also: fused to dimerising human Fc)
[4]
  binding of purified recombinant galectin-3 (immunoblot of adsorbates): binding of galectin-3 to hFc-MUC1-C/ED
galectin-3
  Kd: 11.1 nM
galectin-3(63-250)
  Kd: 9.8 nM

## scrambled oligo: scrambled 2′-O-methyl oligoribonucleotide (CACGGAUCUAGGUCGUAACGUAGG) (SEQ ID NO:21), control (all 2'-O-methyl, backbone not given here) [reference compound]
miR-322 [2]
  half-life of galectin-3 transcripts: 13.0 h

Reference: patent US8420591B2, “MUC1 and galectin-3” (Dana-Farber Cancer Institute, Inc., priority 2006, dated 2013)
